Test [1] relates to STZ-induced diabetic rats. Briefly: Retinal thickness of STZ-induced diabetic rats, long-term administration. The test is classed as in vivo, rat. Conditions: 25 mg/kg/day oral, 4 weeks. From the text: Test compound: […] Positive control: Darapladib, dissolved in ultrapure water. […] All SD rats were preconditioned for 3-5 days. […] The diabetic model was established when the blood glucose of the rats was more than 10 mmol/L. […] The rats were administrated once a day. […] The eyeballs of the rats were removed, frozen and sectioned and the thickness of each slice was 8 μm. The slice was stained with conventional hematoxylin/eosin and photographed with a 400-fold optical microscope (Eclipse 80i, Nikon). The thickness of the retina was analyzed using the software Image-Pro plus 6.0. Five points were selected in each photo. Statistical analysis was performed with the EXCEL 2007 software. […] The experiment results were evaluated by Student T test.

The target of test [2] is T1, Lp-PLA2 (rabbit serum as the source of enzyme) (Oryctolagus cuniculus, UniProt G1SE06).
T1 construct: Rabbit Serum as the Source of Enzyme; from tissue; host or cells: rabbit serum
T1 sequence (G1SE06 22-423): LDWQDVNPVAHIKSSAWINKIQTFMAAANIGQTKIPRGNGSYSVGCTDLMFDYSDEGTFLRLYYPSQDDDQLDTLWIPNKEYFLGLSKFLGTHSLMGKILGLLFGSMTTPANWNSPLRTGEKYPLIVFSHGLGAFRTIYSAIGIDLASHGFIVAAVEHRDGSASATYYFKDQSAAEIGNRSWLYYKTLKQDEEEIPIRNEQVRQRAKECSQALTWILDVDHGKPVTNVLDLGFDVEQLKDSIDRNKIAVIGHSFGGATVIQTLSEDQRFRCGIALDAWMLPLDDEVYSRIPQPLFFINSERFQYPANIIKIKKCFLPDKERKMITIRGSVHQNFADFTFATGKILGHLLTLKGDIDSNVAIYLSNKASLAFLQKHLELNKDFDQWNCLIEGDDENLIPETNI
The test can be described thus: In vitro inhibitory activity on Lp-PLA2, rabbit serum as the source of enzyme (2-thio-PAF/DTNB). The test is classed as biochemical. Conditions: read-out: Inhibitory ratio, % on Lp-PLA2 (rabbit serum as the source of enzyme); for inhibition at 0.1 µM: 100 nM compound; for inhibition at 1 µM: 1 μM compound; for inhibition at 0.01 µM: 10 nM compound, — = no inhibitory activity. The protocol: (§1) 0.1M Tris-HCl, 1 mM EGTA, PH 7.2
(§2) Anhydrous ethanol was used as solvent to make a 25 mg/ml mother liquor. The solution was aliquoted, stored at −80° C. and diluted 900 times before use (about 50 μM of concentration)
(§3) 3) DTNB (5,5′-dithio-bis-(2-nitrobenzoic acid), Sigma, Lot D8130)
(§4) The solution was prepared just before use.
(§5) 4) Compound was dissolved in DMSO to a suitable concentration.
(§6) Lp-PLA2 activity was determined by using 2-thio-PAF as substrate. The thiol group produced upon the hydrolysis of 2-thio-PAF can react with DTNB to generate a yellow substance. The optical density at 414 nm can be detected to reflect Lp-PLA2 activity.
1.1 Determination of the Inhibitory Activity of the Compounds on Lp-PLA2 (Rabbit Serum as the Source of Enzyme) (In Vitro)
1) The corresponding reagents were added according to Table 1 and mixed uniformly by shaking.
(§7) 2) 10 μL of DTNB was added to each well.
(§8) 3) 150 μL of 2-thio-PAF was added to each well and shaken for 15 s on a microplate reader to mix the liquid in the well uniformly.

For test [3], the target named is T2, Lp-PLA2 (human recombinant enzyme as the source of enzyme) (Homo sapiens, UniProt Q13093).
T2 sequence (Q13093 22-441): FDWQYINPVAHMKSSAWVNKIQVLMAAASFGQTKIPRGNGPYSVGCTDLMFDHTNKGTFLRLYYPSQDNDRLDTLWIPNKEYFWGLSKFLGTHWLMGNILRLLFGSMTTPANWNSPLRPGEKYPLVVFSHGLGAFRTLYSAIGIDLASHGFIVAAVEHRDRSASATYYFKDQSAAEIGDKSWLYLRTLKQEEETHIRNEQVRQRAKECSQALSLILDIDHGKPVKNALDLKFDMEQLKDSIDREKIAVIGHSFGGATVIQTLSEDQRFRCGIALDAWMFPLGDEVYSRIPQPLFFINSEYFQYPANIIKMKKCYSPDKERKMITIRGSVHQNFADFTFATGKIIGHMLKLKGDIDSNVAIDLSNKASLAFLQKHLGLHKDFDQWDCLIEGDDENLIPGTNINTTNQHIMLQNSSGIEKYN
The test can be described thus: In vitro inhibitory activity on Lp-PLA2, human recombinant enzyme (2-thio-PAF/DTNB). The format is biochemical. Conditions: read-out: inhibitory ratio, % on Lp-PLA2 (human recombinant enzyme as the source of enzyme); for inhibition at 0.01 µM: 10 nM compound; for inhibition at 0.1 µM: 100 nM compound. On the procedure:
as §1, §2, §3, §4, §5, §6
1.2 Determination of the Inhibitory Activity of the Compounds on Lp-PLA2 (Human Recombinant Enzyme as the Source of Enzyme) (In Vitro)
1) The corresponding reagents were added according to Table 3 and mixed uniformly by shaking.
as §7, §8

For test [4], the system named is Lp-PLA2 (rat serum as the source of enzyme). The test can be described thus: In vitro inhibitory activity on Lp-PLA2, rat serum as the source of enzyme (2-thio-PAF/DTNB). The format is biochemical. Details: key: “—” indicates no inhibitory activity. On the procedure: as §1, §2, §3, §4, §5, §6
1.3 Determination of the Inhibitory Activity of the Compounds on Lp-PLA2 (Rat Serum as the Source of Enzyme (In Vitro)
1) The corresponding reagents were added according to Table 5 and mixed uniformly by shaking.
as §7, §8

Test [5] deals with spontaneous type 2 diabetes ZDF rats. The test can be described thus: Long-term administration in spontaneous type 2 diabetes ZDF rats (blood glucose and other biochemical indexes). The test is classed as in vivo, rat. From the text: Positive control: metformin, produced by China-US Shanghai Squibb Pharmaceutical Co., Ltd.; dissolved in ultra-pure water.
Varieties: ZDF rats, ZL rats; Grade: SPF grade; Age: 56-62 days; Gender: Male; Source: Beijing Weitong Lihua Experimental Animal Co., Ltd.
The kits for total cholesterol (TC), triglyceride (TG), high density lipoprotein cholesterol (HDL-C), low density lipoprotein cholesterol (LDL-C), blood glucose (GLU), aspartate transferase (AST), alanine aminotransferase (ALT), alkaline phosphatase (ALP), urea (BUN), creatinine (CREA) and the like were purchased from Shanghai Shenneng Desai Diagnostic Technology Co., Ltd. The reagents for glycosylated hemoglobin (HbAlc) assay was purchased from Trinity Biotech Corporation. Insulin ELISA Assay Kit was purchased from BertinPharma Corporation. Urine microalbumin (mALB) and other ELISA kits were purchased from Nanjing Jiancheng Bioengineering Institute.
Two ZDF rat groups were orally administered with the compound of example 11 and metformin, respectively. […] The dose of metformin was 300 mg/kg/day. Both were administered for a period of 6 weeks.
Thirty male ZDF rats (56˜62 days old) were fed with Purina #5008 feed (purchased from Nongbiao Purina Feed Co., Ltd.) and the other 6 ZL rats were fed with normal diet as normal control. After fed for 2 weeks, the empty body weights of the fasting rats (fasting for 10 h, free to drink water) were weighed. 0.3 mL blood was collected through tail vein and placed in EDTA anticoagulant tube for the determination of glycosylated hemoglobin (HbAlc). Another 0.5 mL blood was collected and centrifugated at 3000 rpm for 10 min to separate serum which then was determined by automatic biochemical analyzer Model 7020. The serum was separated and then blood glucose and blood lipid (GLU, TC, TG) and hepatorenal function (ALT, AST, ALP, BUN, CREA) were determined. The ZDF rats with blood glucose far from the mean value or having other abnormal indexes were removed and 18 ZDF rats with GLU close to the mean value were selected.
Rats in each group were given the corresponding drug or solvent by gavage through oral once a day in the morning for 6 continuous weeks. Another 6 ZL rats were taken as normal control group.
Every 2 weeks the rats were fasted but allowed free drinking for 10 h, the empty body weight was weighed and 0.5 mL blood was collected through the tail vein to determine the blood glucose levels. The levels of insulin, glycosylated hemoglobin and triglyceride were measured at the 4th week of administration and at the end of the administration. The levels of low density lipoprotein and high density lipoprotein were measured at the 6th week of administration. The urine samples were collected once before the end of the administration and 24 h (11:00 am to 11:00 am the next day) urine samples were collected to detect urinary albumin content in urine.
Statistical analysis was performed with EXCEL 2007 software.

Setting [6] is: 10 nM compound, — = no inhibitory activity.
Setting [7] is: oral 25 then 10 mg/kg/day, 4 weeks after the administration.
The mark [8] stands for this setting: oral 25 then 10 mg/kg/day, 6 weeks after the administration.

As to `CCN(CC)CCN(Cc1ccc(-c2ccc(C(F)(F)F)cc2)cc1)C(=O)Cn1c(SCc2ccc(F)cc2)nc(=O)c2c1CCC2` [darapladib, reference compound], in test [1], the “retinal thickness compared with the model control group” value is listed as “significantly decreased”.

Take `Cn1c(N2CCOCC2)cc(OCc2cc(F)c(Oc3ccc(C(F)(F)F)nc3)c(F)c2)nc1=O` [Example 26]: in test [2], the inhibition at 0.1 µM turned out to be 57.3% and the inhibition at 1 µM came out at 93.5%.

On to `Cn1c(N2CCOCC2)cc(OCCc2cc(F)c(Oc3ccc(Cl)c(C(F)(F)F)c3)c(F)c2)nc1=O` [Example 5, 4-(4-(4-chloro-3-(trifluoromethyl)phenoxy)-3,5-difluorophenethyloxy)-1-methyl-6-morpholinopyrimidin-2(1H)-one], for which the inhibition at 0.01 µM in test [2] is 49.2%; in test [3], around 90%. Besides, the values for the inhibition at 0.1 µM in test [2] and in test [3] were 93.8% and 100%, respectively. In test [2], the inhibition at 1 µM came to 97.3%. For the same molecule, the “inhibitory ratio, % on Lp-PLA2 (rat serum as the source of enzyme)” value (from here on “inhibitory ratio, % on Lp-PLA2”) in test [4] (setting [6]) is on record as 18.21%; in test [4] (100 nM compound), 73.23%.

As for `Cn1c(-c2ccccc2)cc(OCc2cc(F)c(Oc3ccc(Cl)c(C(F)(F)F)c3)c(F)c2)nc1=O` [Example 19, 4-((4-(4-chloro-3-(trifluoromethyl)phenoxy)-3,5-difluorobenzyl)oxy)-1-methyl-6-phenylpyrimidin-2(1H)-one], the figures for the inhibition at 0.1 µM in test [2] and in test [3] were 59.7% and 89.7%, respectively. In test [3], the inhibition at 0.01 µM was found to be 53.6%. The entries for the “inhibitory ratio, % on Lp-PLA2” value in test [4] (setting [6]) and in test [4] (100 nM compound) were “—” and 18.06%, respectively.

In the case of `CN(C)c1cc(OCc2cc(F)c(Oc3ccc(Cl)c(C(F)(F)F)c3)c(F)c2)nc(=O)n1C` [Example 11], the “blood glucose level compared with the model control group” value in test [5] (oral 25 mg/kg/day first 4 days then 10 mg/kg/day, 2 weeks, 4 weeks and 6 weeks after administration) is given as “significantly decreased”. In addition, in test [5] (setting [7]), the “insulin level compared with the model control group” value is given as “significantly increased” and the “triglyceride level compared with the model control group” value is “significantly decreased”. Besides, the “glycosylated hemoglobin levels compared to the model control group” value in test [5] (oral 25 then 10 mg/kg/day, 4 weeks and 6 weeks after the administration) is listed as “significantly reduced”. For the same molecule, the “insulin level compared with the model control group” value in test [5] (oral 25 then 10 mg/kg/day, 6 weeks) is given as “remarkably increased”. In addition, in test [5] (setting [8]), the “high-density lipoprotein level compared with the model control group” value is “no significant change” and the “level of low-density lipoprotein compared with the model control group” value is “significantly reduced”. In addition, the “urinary albumin levels in the urine compared with the model control group” value in test [5] (oral 25 then 10 mg/kg/day, 24 h urine, 6 weeks after the administration) is “significantly reduced”. For the same molecule, the “retinal thickness compared with the model control group” value in test [1] was “significantly decreased”.

In the case of `COc1ccc(-c2cc(OCc3cc(F)c(Oc4ccc(Cl)c(C(F)(F)F)c4)c(F)c3)nc(=O)n2C)cc1` [Example 20, 4-((4-(4-chloro-3-(trifluoromethyl)phenoxy)-3,5-difluorobenzyl)oxy)-6-(4-methoxyphenyl)-1-methylpyrimidin-2(1H)-one], the inhibition at 0.1 µM in test [2] was determined as 54.2%; in test [3] it was 90.4%. The inhibition at 0.01 µM in test [3] is 46.9%. For the same molecule, the “inhibitory ratio, % on Lp-PLA2” value in test [4] (setting [6]) is “—”; in test [4] (100 nM compound), 43.27%.

With `Cn1c(N2CCC(F)(F)C2)cc(OCc2cc(F)c(Oc3ccc(Cl)c(C(F)(F)F)c3)c(F)c2)nc1=O` [Example 16], in test [2], the inhibition at 0.01 µM came to 13.2%, the inhibition at 0.1 µM was 77.4% and the inhibition at 1 µM amounted to 96.4%. Also, in test [3], the inhibition at 0.01 µM stood at 55.3% and the inhibition at 0.1 µM was found to be 92.4%. For the same molecule, in test [4] (setting [6]), the “inhibitory ratio, % on Lp-PLA2” value is reported as 6.84%. Moreover, in test [4] (100 nM compound), the “inhibitory ratio, % on Lp-PLA2” value was 50.35%.

Take `Cn1c(N2CCOCC2)cc(OCc2ccc(Oc3ccc(Cl)c(C(F)(F)F)c3)c(C#N)c2)nc1=O` [Example 27, 2-(4-chloro-3-(trifluoromethyl)phenoxy)-5-((1-methyl-6-morpholinyl-2-oxo-1,2-dihydropyrimidin-4-oxy)methyl)benzonitrile]: the “retinal thickness compared with the model control group” value in test [1] is given as “significantly decreased”.

Take `CCn1c(N2CCOCC2)cc(OCc2cc(F)c(Oc3ccc(Cl)c(C(F)(F)F)c3)c(F)c2)nc1=O` [Example 34, 4-(4-(4-chloro-3-(trifluoromethyl)phenoxy-3,5-difluorobenzyl)oxy)-1-ethyl-6-morpholinopyrimidin-2(1H)-one]: in test [2], the inhibition at 0.1 µM is 54.1% and the inhibition at 1 µM was found to be 95.6%. For the same molecule, in test [3], the inhibition at 0.01 µM was determined as 53.9% and the inhibition at 0.1 µM came to 95.6%.

Consider `Cn1c(N2CCOCC2)cc(OCc2cc(F)c(Oc3ccnc(C(F)(F)F)c3)c(F)c2)nc1=O` [Example 29], for which, in test [2], the inhibition at 0.01 µM was found to be 22.6%, the inhibition at 0.1 µM stood at 83.5% and the inhibition at 1 µM worked out at 97.1%.

The values above are taken from patent US10280146B2, “Pyrimidone compounds used as Lp-PLA2 inhibitors and pharmaceutical compositions thereof” (Shanghai Institute of Materia Medica, Chinese Academy of …, priority 2014, dated 2019).
